Data as given in patent publication US9513294B2, “Megastokes amino-triazolyl-BODIPY compounds and applications to live neuron staining and human serum albumin FA1 drug site probing” (National University of Singapore, priority 2012, dated 2016).

Key:
[1] = Absorbance and fluorescence emission spectra (SpectraMax M2); assay type: physicochemical; settings: MKCA compound library; for λmax Absorp. (nm): absorbance maximum; for λmax Emission (nm): fluorescence emission maximum
Summary of the method: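 Absorbance and emission maxima measured on a SpectraMax M2 spectrophotometer, which also gave quantum yield data; analysis in GraphPrism.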

[2] = Quantum yield measurements versus Acridine Yellow in EtOH; assay type: physicochemical; settings: MKCA compound library; quantum yield
Summary of the method: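 Fluorescence quantum yield is relative to Acridine Yellow in EtOH (Φ 0.47), with excitation at 460 nm. Integrated emission at 510–700 nm was corrected for absorbance at the excitation wavelength and for solvent refractive index.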

Structure (SMILES) | λmax Absorp. (nm) [1] [nm] | λmax Emission (nm) [1] [nm] | φ (%) [2] [%]
Cc1ccccc1CNC1=[N+]2C(=C(c3ccc(NC(=O)CCl)cc3)c3ccc(-n4cc(CN(C)Cc5ccccc5)nn4)n3[B-]2(F)F)C=C1 [MKCA101-18] | 462 | 562 | 21.53
Cc1ccccc1CNC1=[N+]2C(=C(c3ccc(NC(=O)CCl)cc3)c3ccc(-n4cc(CCc5ccccc5)nn4)n3[B-]2(F)F)C=C1 [MKCA101-19] | 463 | 562 | 33.37
Cc1ccccc1CNC1=[N+]2C(=C(c3ccc(NC(=O)CCl)cc3)c3ccc(-n4cc(CC(C)C)nn4)n3[B-]2(F)F)C=C1 [MKCA101-43] | 466 | 562 | 29.92
CCCc1cn(-c2ccc3n2[B-](F)(F)[N+]2=C(NCc4ccccc4C)C=CC2=C3c2ccc(NC(=O)CCl)cc2)nn1 [MKCA101-48] | 465 | 562 | 28.94
CCCCCC(O)c1cn(-c2ccc3n2[B-](F)(F)[N+]2=C(NCc4ccccc4C)C=CC2=C3c2ccc(NC(=O)CCl)cc2)nn1 (stereo not drawn) [MKCA101-69] | 466 | 562 | 21.93
Cc1ccccc1CNC1=[N+]2C(=C(c3ccc(NC(=O)CCl)cc3)c3ccc(-n4cc(CO)nn4)n3[B-]2(F)F)C=C1 [MKCA101-70] | 465 | 560 | 21.76
CCCC(C)c1cn(-c2ccc3n2[B-](F)(F)[N+]2=C(NCc4ccccc4OCC)C=CC2=C3c2ccc(NC(=O)CCl)cc2)nn1 (stereo not drawn) [MKCA103-3] | 466 | 562 | 23.61
CCOc1ccccc1CNC1=[N+]2C(=C(c3ccc(NC(=O)CCl)cc3)c3ccc(-n4cc(C5CC5)nn4)n3[B-]2(F)F)C=C1 [MKCA103-4] | 464 | 564 | 36.22
CCOc1ccccc1CNC1=[N+]2C(=C(c3ccc(NC(=O)CCl)cc3)c3ccc(-n4cc(C5CCCC5)nn4)n3[B-]2(F)F)C=C1 [MKCA103-5] | 464 | 563 | 33.46
CCOc1ccccc1CNC1=[N+]2C(=C(c3ccc(NC(=O)CCl)cc3)c3ccc(-n4cc(CC5CCCCC5)nn4)n3[B-]2(F)F)C=C1 [MKCA103-8] | 464 | 563 | 37.77
CCOc1ccccc1CNC1=[N+]2C(=C(c3ccc(NC(=O)CCl)cc3)c3ccc(-n4cc(CN(C)Cc5ccccc5)nn4)n3[B-]2(F)F)C=C1 [MKCA103-18] | 462 | 561 | 24.66
CCOc1ccccc1CNC1=[N+]2C(=C(c3ccc(NC(=O)CCl)cc3)c3ccc(-n4cc(CCc5ccccc5)nn4)n3[B-]2(F)F)C=C1 [MKCA103-19] | 464 | 563 | 36.82
CCOc1ccccc1CNC1=[N+]2C(=C(c3ccc(NC(=O)CCl)cc3)c3ccc(-n4cc(CC(C)C)nn4)n3[B-]2(F)F)C=C1 [MKCA103-43] | 465 | 563 | 33.76
CCCc1cn(-c2ccc3n2[B-](F)(F)[N+]2=C(NCc4ccccc4OCC)C=CC2=C3c2ccc(NC(=O)CCl)cc2)nn1 [MKCA103-48] | 465 | 562 | 38.23
CCCCCC(O)c1cn(-c2ccc3n2[B-](F)(F)[N+]2=C(NCc4ccccc4OCC)C=CC2=C3c2ccc(NC(=O)CCl)cc2)nn1 (stereo not drawn) [MKCA103-69] | 465 | 562 | 33.49
CCOc1ccccc1CNC1=[N+]2C(=C(c3ccc(NC(=O)CCl)cc3)c3ccc(-n4cc(CO)nn4)n3[B-]2(F)F)C=C1 [MKCA103-70] | 463 | 563 | 20.22
COc1ccc(OC)c(CNC2=[N+]3C(=C(c4ccc(NC(=O)CCl)cc4)c4ccc(-n5cc(C6CC6)nn5)n4[B-]3(F)F)C=C2)c1 [MKCA181-4] | 464 | 566 | 19.35
COc1ccc(OC)c(CNC2=[N+]3C(=C(c4ccc(NC(=O)CCl)cc4)c4ccc(-n5cc(C6CCCC6)nn5)n4[B-]3(F)F)C=C2)c1 [MKCA181-5] | 465 | 560 | 25.80
COc1ccc(OC)c(CNC2=[N+]3C(=C(c4ccc(NC(=O)CCl)cc4)c4ccc(-n5cc(CC6CCCCC6)nn5)n4[B-]3(F)F)C=C2)c1 [MKCA181-8] | 465 | 562 | 20.56
COc1ccc(OC)c(CNC2=[N+]3C(=C(c4ccc(NC(=O)CCl)cc4)c4ccc(-n5cc(CN(C)Cc6ccccc6)nn5)n4[B-]3(F)F)C=C2)c1 [MKCA181-18] | 462 | 563 | 21.65

Structure (SMILES) | λmax Absorp. (nm) [1] [nm] | λmax Emission (nm) [1] [nm] | φ (%) [2] [%]
COc1ccc(OC)c(CNC2=[N+]3C(=C(c4ccc(NC(=O)CCl)cc4)c4ccc(-n5cc(CC(C)C)nn5)n4[B-]3(F)F)C=C2)c1 [MKCA181-43] | 465 | 564 | 21.21
CCCc1cn(-c2ccc3n2[B-](F)(F)[N+]2=C(NCc4cc(OC)ccc4OC)C=CC2=C3c2ccc(NC(=O)CCl)cc2)nn1 [MKCA181-48] | 465 | 563 | 20.00
CCCCCC(O)c1cn(-c2ccc3n2[B-](F)(F)[N+]2=C(NCc4cc(OC)ccc4OC)C=CC2=C3c2ccc(NC(=O)CCl)cc2)nn1 (stereo not drawn) [MKCA181-69] | 465 | 558 | 14.25
COc1ccc(OC)c(CNC2=[N+]3C(=C(c4ccc(NC(=O)CCl)cc4)c4ccc(-n5cc(CO)nn5)n4[B-]3(F)F)C=C2)c1 [MKCA181-70] | 464 | 562 | 19.42
CCCC(C)c1cn(-c2ccc3n2[B-](F)(F)[N+]2=C(N(C)Cc4ccccc4)C=CC2=C3c2ccc(NC(=O)CCl)cc2)nn1 (stereo not drawn) [MKCA195-3] | 466 | 577 | 7.95
CN(Cc1ccccc1)C1=[N+]2C(=C(c3ccc(NC(=O)CCl)cc3)c3ccc(-n4cc(C5CC5)nn4)n3[B-]2(F)F)C=C1 [MKCA195-4] | 466 | 575 | 7.26
CN(Cc1ccccc1)C1=[N+]2C(=C(c3ccc(NC(=O)CCl)cc3)c3ccc(-n4cc(C5CCCC5)nn4)n3[B-]2(F)F)C=C1 [MKCA195-5] | 467 | 580 | 4.93
CN(Cc1ccccc1)C1=[N+]2C(=C(c3ccc(NC(=O)CCl)cc3)c3ccc(-n4cc(CC5CCCCC5)nn4)n3[B-]2(F)F)C=C1 [MKCA195-8] | 465 | 581 | 6.17
CN(Cc1ccccc1)Cc1cn(-c2ccc3n2[B-](F)(F)[N+]2=C(N(C)Cc4ccccc4)C=CC2=C3c2ccc(NC(=O)CCl)cc2)nn1 [MKCA195-18] | 462 | 580 | 3.03
CN(Cc1ccccc1)C1=[N+]2C(=C(c3ccc(NC(=O)CCl)cc3)c3ccc(-n4cc(CCc5ccccc5)nn4)n3[B-]2(F)F)C=C1 [MKCA195-19] | 467 | 586 | 6.77
CC(C)Cc1cn(-c2ccc3n2[B-](F)(F)[N+]2=C(N(C)Cc4ccccc4)C=CC2=C3c2ccc(NC(=O)CCl)cc2)nn1 [MKCA195-43] | 465 | 575 | 4.97
CCCCCC(O)c1cn(-c2ccc3n2[B-](F)(F)[N+]2=C(N(C)Cc4ccccc4)C=CC2=C3c2ccc(NC(=O)CCl)cc2)nn1 (stereo not drawn) [MKCA195-69] | 466 | 582 | 4.20
CN(Cc1ccccc1)C1=[N+]2C(=C(c3ccc(NC(=O)CCl)cc3)c3ccc(-n4cc(CO)nn4)n3[B-]2(F)F)C=C1 [MKCA195-70] | 465 | 581 | 2.58
CCCC(C)c1cn(-c2ccc3n2[B-](F)(F)[N+]2=C(N4CCCC4)C=CC2=C3c2ccc(NC(=O)CCl)cc2)nn1 (stereo not drawn) [MKCA215-3] | 463 | 569 | 3.99
O=C(CCl)Nc1ccc(C2=C3C=CC(N4CCCC4)=[N+]3[B-](F)(F)n3c2ccc3-n2cc(C3CC3)nn2)cc1 [MKCA215-4] | 462 | 570 | 3.35
O=C(CCl)Nc1ccc(C2=C3C=CC(N4CCCC4)=[N+]3[B-](F)(F)n3c2ccc3-n2cc(C3CCCC3)nn2)cc1 [MKCA215-5] | 463 | 574 | 1.94
O=C(CCl)Nc1ccc(C2=C3C=CC(N4CCCC4)=[N+]3[B-](F)(F)n3c2ccc3-n2cc(CC3CCCCC3)nn2)cc1 [MKCA215-8] | 463 | 564 | 2.66
CN(Cc1ccccc1)Cc1cn(-c2ccc3n2[B-](F)(F)[N+]2=C(N4CCCC4)C=CC2=C3c2ccc(NC(=O)CCl)cc2)nn1 [MKCA215-18] | 461 | 577 | 2.62
O=C(CCl)Nc1ccc(C2=C3C=CC(N4CCCC4)=[N+]3[B-](F)(F)n3c2ccc3-n2cc(CCc3ccccc3)nn2)cc1 [MKCA215-19] | 463 | 573 | 4.98
CC(C)Cc1cn(-c2ccc3n2[B-](F)(F)[N+]2=C(N4CCCC4)C=CC2=C3c2ccc(NC(=O)CCl)cc2)nn1 [MKCA215-43] | 461 | 570 | 4.04
